{
  "source": "patent US10238642B2",
  "about": "“Methods for treating neurogenic orthostatic hypotension” (Theravance Biopharma R&D IP, LLC, priority 2016, dated 2019)",
  "key": {"[1]": {"biological_target": "NET (Rattus norvegicus, UniProt Q9WTR4)", "sequence (Q9WTR4 1-597)": "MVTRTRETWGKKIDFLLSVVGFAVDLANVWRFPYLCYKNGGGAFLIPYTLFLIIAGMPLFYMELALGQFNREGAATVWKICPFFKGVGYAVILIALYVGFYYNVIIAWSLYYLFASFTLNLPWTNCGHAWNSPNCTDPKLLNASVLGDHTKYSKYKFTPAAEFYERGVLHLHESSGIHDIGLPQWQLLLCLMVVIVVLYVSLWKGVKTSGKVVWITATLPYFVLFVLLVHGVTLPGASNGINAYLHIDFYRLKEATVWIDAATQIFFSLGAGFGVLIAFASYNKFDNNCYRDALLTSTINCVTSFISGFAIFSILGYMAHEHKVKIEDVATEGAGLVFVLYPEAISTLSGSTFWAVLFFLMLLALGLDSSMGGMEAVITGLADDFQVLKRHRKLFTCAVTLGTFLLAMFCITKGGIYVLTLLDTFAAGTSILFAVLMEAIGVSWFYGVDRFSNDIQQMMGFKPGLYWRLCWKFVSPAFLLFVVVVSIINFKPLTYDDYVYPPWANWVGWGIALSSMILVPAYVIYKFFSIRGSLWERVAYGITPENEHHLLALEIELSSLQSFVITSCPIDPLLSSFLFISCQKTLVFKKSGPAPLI", "test": "Ex vivo transporter occupancy in rat spinal cord (PK/PD model), NET", "conditions": "estimate (% CV)", "experimental": "(§1) Adult male Sprague Dawley rats (Charles River) were housed under controlled laboratory conditions (temperature at 21±1° C.) on a 12:12 hour light-dark cycle. Animals were given free access to food and water upon arrival to the facility and animals were acclimatized to their holding room for at least 48 hours. Animals were fasted but allowed free access to water for 15-18 hours prior to dosing.\n(§2) Rats (n=6/timepoint/dose level) received a single oral dose of 4-[2-(2,4,6-trifluorophenoxymethyl)phenyl]piperidine (0.3, 1, 5, 10, 30, and 60 mg/kg) and were euthanized by decapitation at specified time points (0.5, 2, 4, 6, and 8 hr for 5 mg/kg dose level; 2 hr for 0.3, 1, 10, 30, and 60 mg/kg dose levels) post-administration. Spinal cords were dissected for ex vivo transporter occupancy and PK assessments from the same animals. The spinal cord was harvested by hydraulic extrusion using phosphate-buffered saline, and the lumbar segment dissected and frozen on dry ice. The remaining spinal cord segments were collected and homogenized in water (25% w/w) for PK analysis. All samples were stored at −80° C. until analysis.\n(§3) A kinetic radioligand binding assay was used to determine NET and SERT occupancy in rat spinal cord, as described previously in Bourdet et al., J. Pharm. Exp. Ther. (2012) 341:137-145. PK/PD parameters were estimated by a compartmental modeling approach (WinNonlin Version 5.0.1, Pharsight Corporation). One- and two-compartment PK models with first-order absorption and elimination were evaluated. The one-compartment model was selected. The pharmacodynamics model was an effect compartment Emax model linked directly to the central PK compartment (WinNonlin PK Model 3, PD Model 101). Selection of models was based upon best fit in terms of visual inspection, Akaike Information Criteria, and weighted residual sum of squares using the Gauss-Newton minimization method."}, "[2]": {"tested_on": "anesthetized rats", "test": "Cardiovascular model in anesthetized rat: intrinsic effect on MAP and HR", "assay_type": "in vivo", "conditions": "IP", "experimental": "These studies were conducted to assess the effect of a single administration of 4-[2-(2,4,6-trifluorophenoxymethyl)phenyl]piperidine on heart rate (HR) and mean arterial pressure (MAP) in anesthetized rats.\nNormotensive male Sprague-Dawley rats weighing between 250-350 g were anesthetized with an intraperitoneal injection (IP) of thiobutabarbital (Inactin). All animals were kept under complete anesthesia (i.e., absence of response to toe pinch test) for the surgery and for the duration of the study. The right common carotid artery and jugular vein were isolated and catheterized. The trachea was intubated to keep the airway open during the study. After completion of surgery, the arterial catheter was connected to a pressure transducer and baseline blood pressure [Systolic (SBP), Mean Arterial (MAP) and Diastolic (DBP)] and heart rate (HR) were recorded using the Notocord-HEM data acquisition system. Following at least 60 min of baseline (i.e., the last 10 min was stable), vehicle (10% Tween20, 2 mL/kg, IP) was administered and any potential effect was monitored for at least 10 min. After this period, rats were injected with either vehicle or 4-[2-(2,4,6-trifluorophenoxymethyl)phenyl]piperidine ([…], 2 mL/kg, IP) and changes in MAP and HR were monitored for 25 min. […]"}, "[3]": {"test": "Plasma protein binding, human", "assay_type": "in vitro ADME"}, "[4]": {"biological_target": "CYP3A4 (Homo sapiens, UniProt P08684)", "sequence (P08684 whole entry)": "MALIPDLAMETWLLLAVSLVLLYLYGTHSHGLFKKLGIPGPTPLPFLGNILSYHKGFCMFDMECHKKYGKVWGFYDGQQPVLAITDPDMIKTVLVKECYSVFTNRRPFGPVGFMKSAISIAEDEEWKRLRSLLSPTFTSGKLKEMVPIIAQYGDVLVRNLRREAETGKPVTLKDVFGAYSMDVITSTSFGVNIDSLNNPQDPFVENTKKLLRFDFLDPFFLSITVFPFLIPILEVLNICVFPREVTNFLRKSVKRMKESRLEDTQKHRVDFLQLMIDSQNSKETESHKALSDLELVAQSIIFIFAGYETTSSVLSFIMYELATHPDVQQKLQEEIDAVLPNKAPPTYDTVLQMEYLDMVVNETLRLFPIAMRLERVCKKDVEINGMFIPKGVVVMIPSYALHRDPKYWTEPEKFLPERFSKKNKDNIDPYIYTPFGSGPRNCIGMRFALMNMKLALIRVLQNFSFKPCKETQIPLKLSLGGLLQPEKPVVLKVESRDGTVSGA", "conditions": "cited from earlier work"}, "[5]": {"tested_on": "tyramine pressor response", "test": "Cardiovascular model in anesthetized rat: inhibition of tyramine pressor response", "assay_type": "in vivo", "conditions": "iv, read-out: estimated potency for inhibition of tyramine-induced increase in SBP (Tyr EC50)"}, "[6]": {"test": "Plasma protein binding, rat", "assay_type": "in vitro ADME"}, "[7]": {"test": "Rat oral pharmacokinetics, one-compartment model", "assay_type": "in vivo", "conditions": "estimate (% CV)", "experimental": "as §1, §2, §3"}},
  "data": [
    {"molecule": "Fc1cc(F)c(OCc2ccccc2C2CCNCC2)c(F)c1", "note": "[4-[2-(2,4,6-trifluorophenoxymethyl)phenyl]piperidine]", "values": [
      {"measurement": "Emax (% occupancy), NET", "setting": "[1]; rat spinal cord, single oral dose", "result": "92.0 (19) % occupancy"},
      {"measurement": "EC50", "setting": "[1]; rat spinal cord", "result": 36.4, "unit": "nM"},
      {"measurement": "keo (first-order equilibration rate constant), NET", "setting": "[1]; rat", "result": "1.78 (57) hr^−1"},
      {"measurement": "HR EC25 (free plasma concentration that produced a change in HR of 25 bpm)", "setting": "[2]", "result": 8.6, "unit": "nM"},
      {"measurement": "MAP EC10 (free plasma concentration that produced a change in MAP of 10 mm Hg)", "setting": "[2]", "result": 101.4, "unit": "nM"},
      {"measurement": "fraction unbound", "setting": "[3]", "result": 0.209},
      {"measurement": "reduction of metabolism by chemical inhibition of CYP3A4", "setting": "[4]", "result": 34, "unit": "%"},
      {"measurement": "EC50", "setting": "[5]", "result": 0.86, "unit": "nM"},
      {"measurement": "fraction unbound", "setting": "[6]", "result": 0.098},
      {"measurement": "V/F (volume of the central compartment divided by oral bioavailability)", "setting": "[7]", "result": "54.8 (66) L/kg"},
      {"measurement": "k01 (first-order absorption rate constant)", "setting": "[7]", "result": "0.777 (108) hr^−1"},
      {"measurement": "k10 (elimination rate constant from the central compartment)", "setting": "[7]", "result": "0.319 (81) hr^−1"}
    ]}
  ]
}
